Reference: PMC3216923 (2011)

How the values were obtained:
Assay in all cases: isothermal titration calorimetry
[1] = system: TelQ (DNA, G4) TTAGGGTTAGGGTTAGGGTTAGGG; settings: 10 mM Na phosphate, pH 6.5, 25°C
[2] = system: TelM (DNA, single strand) TTAGGGTTAGAGTTAGGGTTAGGG; settings: 100 mM NaCl; 10 mM Na phosphate, pH 6.5, 25°C; site 1 of 2
[3] = system: dsDNA (DNA, duplex) TTAGGGTTAGGGTTAGGGTTAGGG/CCCTAACCCTAACCCTAACCCTAA; settings: 100 mM NaCl or 100 mM KCl (not specified), Na+ 10 mM (Na phosphate), pH 6.5, 25°C

SMILES: CC(=N)NCCNc1c2c(c(NCCNC(C)=N)c3sccc13)C(=O)c1ccccc1C2=O
- K ass ([1]; 100 mM KCl, text prints 1.0±0.15 × 10^7): 10.6±1.7 × 10^6 M^-1
- K ass ([1]; 100 mM NaCl): 0.9±0.1 × 10^6 M^-1
- K ass [2]: 200±70 × 10^6 M^-1
- K ass [3]: 2.2±0.1 × 10^6 M^-1
